Results published in patent US20050100888A1, “Methods based on hormone dependency of primary cancer cells” (Imperial College Innovations Limited, priority 2002, published 2005).

Key:
estrogen receptor (ER) [1] = molecular target: T1, estrogen receptor (ER) (Homo sapiens, UniProt P03372); conditions: antagonist at 10^−7M; MCF7, virus 100:1, 48 hours
T1 sequence (P03372 1-595): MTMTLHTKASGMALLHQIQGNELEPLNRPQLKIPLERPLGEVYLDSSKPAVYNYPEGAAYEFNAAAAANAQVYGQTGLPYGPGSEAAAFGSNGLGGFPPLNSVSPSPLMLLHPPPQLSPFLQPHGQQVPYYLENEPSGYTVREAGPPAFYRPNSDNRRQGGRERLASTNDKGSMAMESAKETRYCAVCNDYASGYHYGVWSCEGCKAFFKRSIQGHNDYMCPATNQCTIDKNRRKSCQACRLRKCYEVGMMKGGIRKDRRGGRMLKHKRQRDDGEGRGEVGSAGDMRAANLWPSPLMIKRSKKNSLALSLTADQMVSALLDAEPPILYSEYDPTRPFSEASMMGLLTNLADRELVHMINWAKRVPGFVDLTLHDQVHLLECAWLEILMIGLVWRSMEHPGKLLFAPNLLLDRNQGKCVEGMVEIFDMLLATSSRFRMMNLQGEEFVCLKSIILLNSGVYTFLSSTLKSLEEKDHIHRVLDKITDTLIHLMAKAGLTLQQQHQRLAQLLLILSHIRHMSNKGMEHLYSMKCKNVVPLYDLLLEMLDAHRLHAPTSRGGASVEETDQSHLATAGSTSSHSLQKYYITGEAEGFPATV
Experimental: (§1) Cells were incubated for 48 hours following infections unless stated otherwise.
(§2) Reporter Gene Assay 48 hours after virus infection, 20 ul of 20% Triton in PBS was added to each well and incubated at RT for 10 minutes. […] (CRPG) made up in TBS at a concentration of 8 mg/ml was then added to the wells and the plate was incubated, foil-wrapped, at 37° C. until a colour change was observed. Plate readings were taken at a wavelength of 547 nm.

estrogen receptor (ER) [2] = test: viral ER reporter in ER negative breast cancer cell lines; format: cell-based, human; conditions: virus 100:1
Experimental: FIG. 3: Reporter activity in variety of estrogen receptor alpha positive (MCF-7, T47-D, ZR75-1, BT474) and negative (Cal-51, SkBr3, and MDA-MB231 cell lines). For each figure, the order is as follows: (1) refers to the no ligand control.
For adenovirus infections, cell lines were plated in 96 wells at the given density in phenol red free DMEM supplemented with 5% double-stripped serum (PR/5% DSS). The following day cells were exposed to the given quantity of plaque forming units per cell (multiplicity of infection, MOI) in PR/SF medium. This was incubated at 37° C. for 1 hour after which the media was replaced by PR free/5% DSS containing the ligands.
as §2
We went on to test the virus reporter in a variety of ER positive and ER negative cell lines. Again 0.5×10^5 cells were infected with 100 virus per cell (100:1). Using the GFP virus it was evident that the infectability of the cell lines was variable. […]

estrogen receptor (ER) [3] = molecular target: T1, estrogen receptor (ER); test: adeno-reporter assay in purified primary breast cancer cells (tumour, lymph node); format: cell-based; conditions: E2 10 nM, OHT 100 nM, ICI 100 nM, 48 h
Experimental: (§3) The product was then filtered through a nylon mesh (Lockertex Ltd, Merseyside, UK) and the filtrate centrifuged at 2000 rpm, at room temperature (RT). The pellet was re-suspended in 9 mls of RPMI/1% FCS and a cell count performed to estimate the number of tumour cells in the preparation. […] A count of viable tumour cells was performed using trypan blue (Sigma, Poole, UK) prior to seeding in breast complete medium (DMEM/F-12 containing, 15 mM Hepes, 2 mM L-glutamine, 100U/ml penicillin, O. 1 mg/ml streptomycin, 50 U/ml polymixin B, 2.5 μg/ml amphotericin B, 5 μg/ml insulin, 10 μg/ml apo-transferrin, 100 μM ethanolamine, 1 μg/ml hydrocortisone, 10 ng/ml EGF) plus 5% FCS) for culture. The cells were used for experiments on day 3 after the initial plating.
(§4) For infections of primary cells, 6-10,000 cells/well were allowed and exposed to the given quantity of virus, after which they were pelleted and re-supended in 200 ul of PR free/5% DSS medium containing the appropriate ligands prior to plating into 96-well plates.
as §1, §2
(§5) We have used the adeno-reporter to infect purified cells from breast cancer and lymph nodes of 19 patients. The reporter assay was performed in a blinded fashion since the IHC report of ER status was not available until after the experiments were complete. Viral infections were performed in suspension so as not to loose cancer cells since they were only loosely adherent. Following exposure to the virus for an hour, the cells were washed to remove excess virus and then plated and incubated in PR free/5% DSS supplemented with the given ligands for 48 hours.

estrogen receptor (ER) [4] = test: as above; format: cell-based, human; conditions: for Reporter response: E2 10 nM, OHT 100 nM, ICI 100 nM, 48 h
Experimental: as §3, §4, §1, §2, §5

estrogen receptor (ER) [5] = test: adenoERreporter assay in fine needle aspirates (FNA) from recurrent breast cancer; format: cell-based, human
Experimental: Cells obtained from FNAs were collected in PBS (Sigma, Poole, UK) containing 2% FCS. If the aspirate was bloody, erythrocyte lysis buffer (0.155M NH4Cl, 10 mM KHCO3, 0.1 mM EDTA, pH 7.4) was used to lyse the red blood cells and after a further wash with PBS, the cells were re-suspended in culture media for counting and immediate infections.
as §4, §2
We purified breast cancer cells from metastatic fluid, both pleural and ascites as well as fine needle aspirates (FNA) from recurrent breast cancer. These cells were counted and infected with adenoERreporter and after 48 hours a β-gal assay was performed. We have infected 9 metastatic effusions including 2 cell lines of passage number two, derived from pleural effusions and 4 FNAs. Tables 3 and 4 show the treatment history and characteristics of the patients that provided the samples. Where possible, some of the fluid was sent for cytology and ER staining. However, this was not always feasible due to the variability of cancer cells in the metastatic fluid.

estrogen receptor (ER) [6] = molecular target: T1, estrogen receptor (ER); conditions: infected MCF7 cells

C[C@]12CC[C@@H]3c4ccc(O)cc4C[C@@H](CCCCCCCCC[S+]([O-])CCCC(F)(F)C(F)(F)F)[C@H]3[C@@H]1CC[C@@H]2O (stereo partly drawn) [ICI 182,780]
effect on E2 induced reporter activity (estrogen receptor (ER) [1]): blocked E2 induced reporter activity
effect on ERE driven β-gal reporter / baseline activity (estrogen receptor (ER) [2]): did not have a significant effect on the baseline activity
Reporter response (estrogen receptor (ER) [3]; Table 2 patient 6, ER+++/PR+++): inh
Reporter response (estrogen receptor (ER) [3]; Table 2 patient 7, ER+++/PR+++, Post): inh
Reporter response (estrogen receptor (ER) [4]; Table 2 patient 3 Ln): inh
Reporter response (estrogen receptor (ER) [4]; Table 2 patient 5 Ln, ER+/PR−, Pre): ns
Reporter response (estrogen receptor (ER) [4]; Table 2 patient 8, ER+++/PR−, Post): ns
Reporter response (estrogen receptor (ER) [4]; Table 2 patient 11, receptor status ?): inh
Reporter response (estrogen receptor (ER) [4]; Table 2 patient 12 Ln): ns
Reporter response (estrogen receptor (ER) [4]; Table 2 patient 12 Tu, Anaplastic small cell carcinoma, ER−/PR−): ns
Reporter response (estrogen receptor (ER) [4]; Table 2 patient 13, ER−/PR−, Post): ns
Reporter response (estrogen receptor (ER) [4]; Table 2 patient 15 Ln): ns
Reporter response (estrogen receptor (ER) [4]; Table 2 patient 15 Tu, ER−/PR−): ns
Reporter response (estrogen receptor (ER) [4]; Table 2 patient 16 Ln): ns
Reporter response (estrogen receptor (ER) [4]; Table 2 patient 16 Tu, Post): ns
Reporter response (estrogen receptor (ER) [4]; Table 2 patient 17): ns
Reporter response (estrogen receptor (ER) [4]; Table 2 patient 18, ER−/PR−): ns
effect on reporter activity across patient samples (estrogen receptor (ER) [4]; purified cells from breast cancer and lymph nodes of 19 patients): inhibitory in all cases
Reporter Assay: inhibition (estrogen receptor (ER) [5]; FNA summary table, N = 1, IHC ER−/PR−, ?Responder): OHT/ICI inhibit by × 1.8
Reporter Activity (estrogen receptor (ER) [5]; Table 4 patient 8) T2GN0M0, primary ER++/PR−, FNA ER−/PR−, prior Arimidex 1y): x1.0
β-gal expression by X-gal staining (estrogen receptor (ER) [6]): completely abolished even basal levels of staining
